Like-named read-outs stand apart in the source and are kept apart here.
Columns and labels:
[1] = in vitro; conditions: African green monkey
[2] = test system: DENV-2 16681 strain; test: DENV-2 antiviral assay (eGFP fluorescence, Vero cells); assay type: cell-based, Dengue virus; conditions: DENV-2 16681 eGFP, MOI 0.5, 3 days
Procedure: The antiviral activity of all the compounds of the invention was tested against the DENV-2 16681 strain which was labeled with enhanced green fluorescent protein (eGPF; Table 1). The culture medium consists of minimal essential medium supplemented with 2% of heat-inactivated fetal calf serum, 0.04% gentamycin (50 mg/mL) and 2 mM of L-glutamine. Vero cells, obtained from ECACC, were suspended in culture medium and 25 μL was added to 384-well plates (2500 cells/well), which already contain the antiviral compounds. Typically, these plates contain a 5-fold serial dilution of 9 dilution steps of the test compound at 200 times the final concentration in 100% DMSO (200 nL). […] Finally, each plate contains wells which are assigned as virus controls (containing cells and virus in the absence of compound), cell controls (containing cells in the absence of virus and compound) and medium controls (containing medium in the absence of cells, virus and compounds). To the wells assigned as medium control, 25 μL of culture medium was added instead of Vero cells. Once the cells were added to the plates, the plates were incubated for 30 minutes at room temperature to allow the cells to distribute evenly within the wells. Next, the plates were incubated in a fully humidified incubator (37° C., 5% CO2) until the next day. Then, DENV-2 strain 16681, labeled with eGFP, was added at a multiplicity of infection (MOI) of 0.5. Therefore, 15 μL of virus suspension was added to all the wells containing test compound and to the wells assigned as virus control. In parallel, 15 μL of culture medium was added to the medium and cell controls. Next, the plates were incubated for 3 days in a fully humidified incubator (37° C., 5% CO2). At the day of the read out, the eGFP fluorescence was measured using an automated fluorescence microscope at 488 nm (blue laser). Using an in-house LIMS system, inhibition dose response curves for each compound were calculated and the half maximal effective concentration (EC50) was determined. Therefore, the percent inhibition (I) for every test concentration is calculated using the following formula: I=100*(ST−SCC)/(SVC−SCC); ST, SCC and SVC are the amount of eGFP signal in the test compound, cell control and virus control wells, respectively. The EC50 represents the concentration of a compound at which the virus replication is inhibited with 50%, as measured by a 50% reduction of the eGFP fluorescent intensity compared to the virus control. The EC50 is calculated using linear interpolation.

[3] = in vitro; assay type: cell-based; conditions: African green monkey, CC50
Procedure: (§1) The antiviral activity of the compounds of the invention was tested against DENV-1 strain TC974#666 (NCPV; Table 6), DENV-2 strain 16681 (Table 7), DENV-3 strain H87 (NCPV; Table 8) and DENV-4 strains H241 (NCPV; Table 9A) and SG/06K2270DK1/2005 (Eden; Table 9B) in a RT-qPCR assay. Therefore, Vero cells were infected with either DENV-1, or -2, or -3, or -4 in the presence or absence of test compounds. At day 3 post-infection, the cells were lysed and cell lysates were used to prepare cDNA of both a viral target (the 3′UTR of DENV; Table 2) and a cellular reference gene (β-actin, Table 2). Subsequently, a duplex real time PCR was performed on a Lightcycler480 instrument. The generated Cp value is inversely proportional to the amount of RNA expression of these targets. Inhibition of DENV replication by test compound results in a shift of Cp's for the 3′UTR gene. On the other hand, if a test compound is toxic to the cells, a similar effect on β-actin expression will be observed. The comparative ΔΔCp method is used to calculate EC50, which is based on the relative gene expression of the target gene (3′UTR) normalized with the cellular housekeeping gene (β-actin).
(§2) The culture medium consisted of minimal essential medium supplemented with 2% of heat-inactivated fetal calf serum, 0.04% gentamycin (50 mg/mL) and 2 mM of L-glutamine. Vero cells, obtained from ECACC, were suspended in culture medium and 75 μL/well was added in 96-well plates (10000 cells/well), which already contain the antiviral compounds. […] In addition, each plate contains wells which are assigned as virus controls (containing cells and virus in the absence of compound) and cell controls (containing cells in the absence of virus and compound). Once the cells were added in the plates, the plates were incubated in a fully humidified incubator (37° C., 5% CO2) until the next day. Dengue viruses serotype-1, 2, 3 and 4 were diluted in order to obtain a Cp of ˜22-24 in the assay. Therefore, 25 μL of virus suspension was added to all the wells containing test compound and to the wells assigned as virus control. In parallel, 25 μL of culture medium was added to the cell controls. Next, the plates were incubated for 3 days in a fully humidified incubator (37° C., 5% CO2). After 3 days, the supernatant was removed from the wells and the cells were washed twice with ice-cold PBS (˜100 μL). The cell pellets within the 96-well plates were stored at −80° C. for at least 1 day. Next, RNA was extracted using the Cells-to-CT™ lysis kit, according to the manufacturer's guideline (Life Technologies). The cell lysates can be stored at −80° C. or immediately used in the reverse transcription step.
(§3) Using the LightCycler software and an in-house LIMS system, dose response curves for each compound were calculated and the half maximal effective concentration (EC50) and the half maximal cytotoxic concentration (CC50) were determined.

[4] = test system: DENV-4 strain H241; test: Tetravalent RT-qPCR assay Protocol A, serotype 4 H241; assay type: cell-based; conditions: Dengue virus
Procedure: as §1, §2
(§4) In preparation of the reverse transcription step, mix A (table 3A) was prepared and 7.57 μL/well was dispensed in a 96-well plate. After addition of 5 μL of the cell lysates, a five minute denaturation step at 75° C. was performed (table 3B). Afterwards, 7.43 μL of mix B was added (table 3C) and the reverse transcription step was initiated (table 3D) to generate cDNA.
(§5) Finally, a RT-qPCR mix was prepared, mix C (table 4A), and 22.02 μL/well was dispensed in 96-well LightCycler qPCR plates to which 3 μL of cDNA was added and the qPCR was performed according to the conditions in table 4B on a LightCycler 480.
as §3

[5] = test system: DENV-1 strain TC974#666; test: Tetravalent RT-qPCR assay Protocol A, serotype 1; assay type: cell-based; conditions: Dengue virus, DENV1, 72 h, RT-qPCR serotype 1 TC974#666, Vero cells, day 3
Procedure: as §1, §2, §4, §5, §3

[6] = test system: DENV-2 strain 16681; test: Tetravalent RT-qPCR assay Protocol A, serotype 2; assay type: cell-based; conditions: Dengue virus
Procedure: as §1, §2, §4, §5, §3

[7] = test system: DENV-3 strain H87; test: Tetravalent RT-qPCR assay Protocol A, serotype 3; assay type: cell-based; conditions: Dengue virus, DENV3, 72 h, RT-qPCR serotype 3 H87, Vero cells, day 3
Procedure: as §1, §2, §4, §5, §3

[8] = test system: DENV-4 strain SG/06K2270DK1/2005 (Eden); test: Tetravalent RT-qPCR assay Protocol A, serotype 4 EDEN; assay type: cell-based; conditions: Dengue virus, DENV4, Vero, 72 h
Procedure: as §1, §2, §4, §5, §3

[9] = test system: Vero cells; conditions: African green monkey
[10] = Dengue virus, DENV2, Vero, 72 h
[11] = DENV4, 72 h, Protocol A, RT-qPCR serotype 4 H241, Vero cells, day 3, read-out: EC50
[12] = DENV2, 72 h, Protocol A, RT-qPCR serotype 2 16681, Vero cells, day 3, read-out: EC50

SMILES: COc1cc(NC(C(=O)c2c[nH]c3c(C)c(F)ccc23)c2ccc(Cl)cc2OC)cc(S(C)(=O)=O)c1 (racemic) [Compound 2, 2-(4-chloro-2-methoxyphenyl)-1-(6-fluoro-7-methyl-1H-indol-3-yl)-2-((3-methoxy-5-(methylsulfonyl)phenyl)amino)ethanone]
- CC50 [1]: 5000 nM
- EC50 [2, 10]: 0.6 nM

SMILES: COc1cc(NC(C(=O)c2c[nH]c3cc(OC)ccc23)c2ccc(Cl)cc2OC)cc(S(C)(=O)=O)c1 (racemic) [Compound 3, 2-(4-chloro-2-methoxyphenyl)-1-(6-methoxy-1H-indol-3-yl)-2-((3-methoxy-5-(methylsulfonyl)phenyl)amino)ethanone]
- CC50 [1]: > 11000 nM
- EC50 [2, 10]: 0.58 nM

SMILES: COc1cc(NC(C(=O)c2c[nH]c3cc(OC)c(C)cc23)c2ccc(Cl)cc2OC)cc(S(C)(=O)=O)c1 (racemic) [Compound 4, 2-(4-chloro-2-methoxyphenyl)-2-((3-methoxy-5-(methyl-sulfonyl)phenyl)amino)-1-(6-methoxy-5-methyl-1H-indol-3-yl)ethanone]
- CC50 [1]: 5900 nM
- EC50 [2, 10]: 0.39 nM

SMILES: COc1cc(NC(C(=O)c2c[nH]c3cc(OC)c(F)cc23)c2ccc(Cl)cc2OC)cc(S(C)(=O)=O)c1 (racemic) [Compound 5, 2-(4-chloro-2-methoxyphenyl)-1-(5-fluoro-6-methoxy-1H-indol-3-yl)-2-((3-methoxy-5-(methylsulfonyl)phenyl)amino)ethanone]
- CC50 [1]: 5500 nM
- EC50 [2, 10]: 0.62 nM

SMILES: COc1cc(NC(C(=O)c2c[nH]c3cc(F)c(C)cc23)c2ccc(Cl)cc2OC)cc(S(C)(=O)=O)c1 (racemic) [Compound 7, 2-(4-chloro-2-methoxyphenyl)-1-(6-fluoro-5-methyl-1H-indol-3-yl)-2-((3-methoxy-5-(methylsulfonyl)phenyl)amino)ethanone]
- CC50 [1]: 3200 nM
- EC50 [2, 10]: 0.47 nM

SMILES: COc1cc(NC(C(=O)c2c[nH]c3ccc(C(F)(F)F)cc23)c2ccc(Cl)cc2OC)cc(S(C)(=O)=O)c1 (racemic) [Compound 8, 2-(4-chloro-2-methoxyphenyl)-2-((3-methoxy-5-(methyl-sulfonyl)phenyl)amino)-1-(5-(trifluoromethyl)-1H-indol-3-yl)ethanone]
- CC50 [1]: 2900 nM
- EC50 [2, 10]: 0.13 nM

SMILES: COc1cc(NC(C(=O)c2c[nH]c3ccc(OC(F)(F)F)cc23)c2ccc(Cl)cc2OC)cc(S(C)(=O)=O)c1 (racemic) [Compound 9, 2-(4-chloro-2-methoxyphenyl)-2-((3-methoxy-5-(methyl-sulfonyl)phenyl)amino)-1-(5-(trifluoromethoxy)-1H-indol-3-yl)ethanone]
- CC50 [1]: 3100 nM
- EC50 [2, 10]: 0.074 nM

SMILES: COc1cc(NC(C(=O)c2c[nH]c3cc(OC)ccc23)c2ccc(Cl)cc2OC)cc(S(C)(=O)=O)c1 (single isomer, unassigned) [Compound 3A, 2-(4-chloro-2-methoxyphenyl)-1-(6-methoxy-1H-indol-3-yl)-2-((3-methoxy-5-(methylsulfonyl)phenyl)amino)ethanone]
- CC50 at 3 days [3]: 5500 nM
- EC50 [4, 11]: 110 nM
- EC50 [5]: 4.2 nM
- EC50 [6, 12]: 0.3 nM
- EC50 [7]: 48 nM
- CC50 [1]: 7200 nM
- EC50 [8]: 3 nM
- EC50 [2]: 0.25 nM

SMILES: COc1cc(NC(C(=O)c2c[nH]c3ccc(C(F)(F)F)cc23)c2ccc(Cl)cc2OC)cc(S(C)(=O)=O)c1 (single isomer, unassigned) [Compound 8B, 2-(4-chloro-2-methoxyphenyl)-2-((3-methoxy-5-(methyl-sulfonyl)phenyl)amino)-1-(5-(trifluoromethyl)-1H-indol-3-yl)ethanone]
- CC50 at 3 days [3]: 1900 nM
- EC50 [4, 11]: 15 nM
- EC50 [5]: 0.45 nM
- EC50 ([6]; DENV2, Vero, 72 h): 0.31 nM
- EC50 [7]: 5.8 nM
- CC50 [9]: 3400 nM
- EC50 [2]: 0.069 nM

SMILES: COc1cc(NC(C(=O)c2c[nH]c3ccc(OC(F)(F)F)cc23)c2ccc(Cl)cc2OC)cc(S(C)(=O)=O)c1 (single isomer, unassigned) [Compound 9A, 2-(4-chloro-2-methoxyphenyl)-2-((3-methoxy-5-(methyl-sulfonyl)phenyl)amino)-1-(5-(trifluoromethoxy)-1H-indol-3-yl)ethanone]
- CC50 at 3 days [3]: 1700 nM
- EC50 [4, 11]: 12 nM
- EC50 [5]: 0.11 nM
- EC50 [6, 12]: 0.057 nM
- EC50 [7]: 2.1 nM
- CC50 [9]: 2900 nM
- EC50 [2]: 0.067 nM

SMILES: COc1cc(NC(C(=O)c2c[nH]c3c(C)cc(OC(F)(F)F)cc23)c2ccc(Cl)cc2OC)cc(S(C)(=O)=O)c1 (single isomer, unassigned) [Compound 11A, 2-(4-chloro-2-methoxyphenyl)-2-((3-methoxy-5-(methylsulfonyl)phenyl)amino)-1-(7-methyl-5-(trifluoromethoxy)-1H-indol-3-yl)ethanone]
- CC50 at 3 days [3]: > 2500 nM
- EC50 ([4]; DENV4, Vero, 72 h): 11 nM
- EC50 [5]: 0.13 nM
- EC50 [6, 12]: 0.051 nM
- EC50 [7]: 1.2 nM
- CC50 [9]: 2600 nM
- EC50 [2]: 0.085 nM

Reference: patent US12172959B2, “Mono- or di-substituted indole derivatives as dengue viral replication inhibitors” (priority 2015, dated 2024)
